Experimental data taken from patent US20240109900A1, “AZABICYCLIC SHP2 INHIBITORS” (IRBM S.P.A., priority 2021, published 2024).
Read-outs that look alike come from different tables or passages of the source.

Legend:
[1] = biological target: SHP-2 enzyme (Met1-Leu525) (Homo sapiens (Human), UniProt Q06124); assay: SHP2 inhibition enzymatic assay; type: biochemical; conditions: 0.5 nM SHP-2 activated by 500 nM IRS1 peptide, 75 μM DiFMUP substrate; read-out: SHP2wt-IC50
Procedure: The assay was performed as described in YP Chen et al, Nature (535)2016. Assay volume of 20 μL/well was assembled in 384 well black polystyrene low-binding microplates (Greiner), using the following buffer: 60 mM HEPES pH 7.2, 75 mM NaCl, 75 mM KCl, 1 mM EDTA pH 8, 0.05% tween-20, 5 mM DTT. The SHP-2 enzyme (synthetized by Origene, Met1-Leu525, cat #TP750155) was used at a final concentration of 0.5 nM. The enzyme was activated by 500 nM IRS1 peptide (sequence: H2N-LN(pY)IDLDLV(dPEG8)LST(pY)ASINFQK-amide SEQ ID No. 1) and incubated with 75 μM DiFMUP (Sigma) as substrate.
Briefly, DMSO serially diluted testing compounds were transferred to the bottom of the assay plate. SHP2 was then added together with the IRS1 peptide. 30 min post incubation, the DiFMUP substrate was added to the reaction and incubated 30 min at room temperature. Finally 5 μL of 160 μM bpV (Potassium bisperoxo[1,10-phenanthroline]oxovanadate [V], Sigma) were added to stop and quench the reaction. The fluorescence was detected by a microplate reader (Envision, PerkinElmer) according to the DiFMUP excitation and emission wavelength. The lower the fluorescence the higher the SHP2 inhibition. […] The percentage inhibition is fitted against the compound dilutions with a four-parameter logistic regression. The inflection point (i.e. the concentration at which half-maximal inhibition is achieved) is the IC50.

[2] = test system: ERK phosphorylation in KYSE-520 cells; assay: Phospho-ERK cellular assay; type: cell-based; conditions: KYSE-520 cells, 2 h at 37° C., phospho-ERK1/2 (Thr202/Tyr204) TR-FRET, read-out: PERK IC50
Procedure: ERK phosphorylation was detected using the “Advanced phospho-ERK1/2 (Thr202/Tyr204)” TR-FRET kit (Cisbio, Cat #64AERPEG/H), following the manufacturer reagents and instructions.
Briefly, 20.000/well KYSE-520 cells (DSMZ ACC 371) were plated in 6 μL RPMI-1640 (Invitrogen) growth medium, into 384 white low-volume high base TC microplates (Greiner). After an overnight incubation, cells were treated with DMSO serial diluted compounds and incubated for 2 h at 37° C. After incubation, 2 μL/well of 4×Lysis Buffer (Cisbio 64KL1FDF), were added and incubated with cells for 30 min on gentle shaking. Finally, lysates were added with 2 μL/well of Eu cryptate (donor) and D2 (acceptor) conjugated antibodies (as provided by the Cisbio kit #64AERPEG/H) diluted 1:100 in Detection Buffer (as provided by the Cisbio kit #64AERPEG/H). Plates were then sealed and incubated at room temperature in the dark. After an overnight incubation, the TR-FRET signal was detected on a suitable reader (Envision, PerkinElmer). The lower the TR-FRET signal the higher the higher the SHP2 inhibition in cells.
The activity of each compound dilution was calculated as percentage between vehicle DMSO treated cells and no cells, 0% inhibition and 100% inhibition respectively. The percentage activity is fitted against the compound dilutions with a four-parameter logistic regression. The inflection point (i.e. the concentration at which half-maximal inhibition is achieved) is the IC50.

Chain of SHP-2 enzyme (Met1-Leu525) (Q06124 1-525): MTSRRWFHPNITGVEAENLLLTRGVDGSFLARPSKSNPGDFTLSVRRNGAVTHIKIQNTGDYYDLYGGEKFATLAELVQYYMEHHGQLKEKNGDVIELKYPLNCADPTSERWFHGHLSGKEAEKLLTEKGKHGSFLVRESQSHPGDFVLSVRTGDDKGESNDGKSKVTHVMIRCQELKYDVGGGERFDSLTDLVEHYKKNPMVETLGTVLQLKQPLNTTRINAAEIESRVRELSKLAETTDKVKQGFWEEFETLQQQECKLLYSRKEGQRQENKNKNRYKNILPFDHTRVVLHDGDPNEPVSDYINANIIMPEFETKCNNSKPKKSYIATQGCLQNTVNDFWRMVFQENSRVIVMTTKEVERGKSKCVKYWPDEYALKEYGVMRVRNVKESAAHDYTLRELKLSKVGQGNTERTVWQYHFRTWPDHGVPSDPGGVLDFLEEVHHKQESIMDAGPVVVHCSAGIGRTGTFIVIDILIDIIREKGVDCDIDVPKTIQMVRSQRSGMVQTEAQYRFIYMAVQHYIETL

SMILES: NC[C@]1(c2ccccc2F)[C@@H]2CCN(c3cnc4c(-c5ccc6c(c5Cl)NC(=O)CO6)n[nH]c4n3)C[C@@H]21 [Example 207, 6-(6-((1S,6R,7R)-7-(aminomethyl)-7-(2-fluorophenyl)-3-azabicyclo[4.1.0]heptan-3-yl)-1H-pyrazolo[3,4-b]pyrazin-3-yl)-5-chloro-2H-benzo[b][1,4]oxazin-3(4H)-one]
- IC50 [1]: < 500 nM
- IC50 ([2]; Homo sapiens, KYSE-520, 2 h): < 1000 nM

SMILES: NC[C@]1(c2ccccc2F)[C@@H]2CCN(c3cnc4c(-c5ccc(O)c(F)c5F)n[nH]c4n3)C[C@@H]21 [Example 374, 4-(6-((1S,6R,7R)-7-(aminomethyl)-7-(2-fluorophenyl)-3-azabicyclo[4.1.0]heptan-3-yl)-1H-pyrazolo[3,4-b]pyrazin-3-yl)-2,3-difluorophenol]
- IC50 [1]: < 500 nM
- IC50 ([2]; Homo sapiens, KYSE-520, 2 h): < 1000 nM

SMILES: NC[C@]1(c2ccccc2F)[C@@H]2CCN(c3cnc4c(-c5ccc(F)c(O)c5F)n[nH]c4n3)C[C@@H]21 [Example 355, 3-(6-((1S,6R,7R)-7-(aminomethyl)-7-(2-fluorophenyl)-3-azabicyclo[4.1.0]heptan-3-yl)-1H-pyrazolo[3,4-b]pyrazin-3-yl)-2,6-difluorophenol]
- IC50 [1]: < 500 nM
- IC50 ([2]; Homo sapiens, KYSE-520, 2 h): < 1000 nM

SMILES: NCC1(c2ccccn2)C2CCN(c3cnc(Sc4cccnc4C(F)(F)F)c(N)n3)CC21 (stereo not shown) [Example 72, 6-(7-(aminomethyl)-7-(pyridin-2-yl)-3-azabicyclo[4.1.0]heptan-3-yl)-3-((2-(trifluoromethyl)pyridin-3-yl)thio)pyrazin-2-amine]
- IC50 [1]: < 500 nM
- IC50 ([2]; Homo sapiens, KYSE-520, 2 h): < 1000 nM

SMILES: NC[C@]1(c2ccccc2F)[C@@H]2CCN(c3cnc4c(-c5ccc(-c6cn[nH]c6)cc5Cl)n[nH]c4n3)C[C@@H]21 [Example 256, ((1S,6R,7R)-3-(3-(2-chloro-4-(1H-pyrazol-4-yl)phenyl)-1H-pyrazolo[3,4-b]pyrazin-6-yl)-7-(2-fluorophenyl)-3-azabicyclo[4.1.0]heptan-7-yl)methanamine]
- IC50 [1]: < 500 nM
- IC50 ([2]; Homo sapiens, KYSE-520, 2 h): < 1000 nM

SMILES: CN1Cc2c(ccc(-c3n[nH]c4nc(N5CC[C@@H]6[C@H](C5)[C@@]6(CN)c5ccccc5F)cnc34)c2Cl)C1=O [Example 350, 5-(6-((1S,6R,7R)-7-(aminomethyl)-7-(2-fluorophenyl)-3-azabicyclo[4.1.0]heptan-3-yl)-1H-pyrazolo[3,4-b]pyrazin-3-yl)-4-chloro-2-methylisoindolin-1-one]
- IC50 [1]: < 500 nM
- IC50 ([2]; Homo sapiens, KYSE-520, 2 h): < 1000 nM

SMILES: NC[C@]1(c2ccccc2F)[C@@H]2CCN(c3cnc4c(-c5ccc6c(c5Cl)C(F)(F)C(=O)N6)n[nH]c4n3)C[C@@H]21 [Example 373, 5-(6-((1S,6R,7R)-7-(aminomethyl)-7-(2-fluorophenyl)-3-azabicyclo[4.1.0]heptan-3-yl)-1H-pyrazolo[3,4-b]pyrazin-3-yl)-4-chloro-3,3-difluoroindolin-2-one]
- IC50 [1]: < 500 nM
- IC50 ([2]; Homo sapiens, KYSE-520, 2 h): < 1000 nM

SMILES: Cc1cc(C2(CN)C3CCN(c4nc5[nH]nc(-c6ccc7nc(C)sc7c6Cl)c5nc4C)CC32)no1 (stereo not shown) [Example 110, (3-(3-(7-chloro-2-methylbenzo[d]thiazol-6-yl)-5-methyl-1H-pyrazolo[3,4-b]pyrazin-6-yl)-7-(5-methylisoxazol-3-yl)-3-azabicyclo[4.1.0]heptan-7-yl)methanamine]
- IC50 [1]: < 500 nM
- IC50 ([2]; Homo sapiens, KYSE-520, 2 h): < 1000 nM

SMILES: NC[C@]1(c2ccccc2F)[C@@H]2CCN(c3cnc4c(-c5ccc6nc(C(F)(F)F)ncc6c5)n[nH]c4n3)C[C@@H]21 [Example 309, ((1S,6R,7R)-7-(2-fluorophenyl)-3-(3-(2-(trifluoromethyl)quinazolin-6-yl)-1H-pyrazolo[3,4-b]pyrazin-6-yl)-3-azabicyclo[4.1.0]heptan-7-yl)methanamine]
- IC50 [1]: < 500 nM
- IC50 ([2]; Homo sapiens, KYSE-520, 2 h): > 5000 nM

SMILES: NC[C@]1(c2ccccc2F)[C@@H]2CCN(c3cnc4c(-c5ccc6c(=O)[nH]ncc6c5Cl)n[nH]c4n3)C[C@@H]21 [Example 340]
- IC50 [1]: < 500 nM
- IC50 [2]: < 1000 nM

SMILES: NC[C@]1(c2ccccc2F)[C@@H]2CCN(c3cnc4c(-c5ccc(F)c6ncccc56)n[nH]c4n3)C[C@@H]21 [Example 376, ((1S,6R,7R)-7-(2-fluorophenyl)-3-(3-(8-fluoroquinolin-5-yl)-1H-pyrazolo[3,4-b]pyrazin-6-yl)-3-azabicyclo[4.1.0]heptan-7-yl)methanamine]
- IC50 [1]: < 500 nM
- IC50 ([2]; Homo sapiens, KYSE-520, 2 h): < 1000 nM

SMILES: COc1nccc(-c2n[nH]c3nc(N4C[C@@H]5[C@H](C4)C5(CN)c4nc(C)cs4)cnc23)c1Cl (stereo partly shown) [Example 476]
- IC50 [1]: < 500 nM
- IC50 [2]: < 1000 nM

SMILES: NC[C@]1(c2ccccc2F)[C@@H]2CCN(c3cnc(Sc4ccnc5ccccc45)c(N)n3)C[C@@H]21 [Example 524, 6-((1S,6R,7R)-7-(aminomethyl)-7-(2-fluorophenyl)-3-azabicyclo[4.1.0]heptan-3-yl)-3-(quinolin-4-ylthio)pyrazin-2-amine]
- IC50 [1]: < 500 nM
- IC50 ([2]; Homo sapiens, KYSE-520, 2 h): > 5000 nM

SMILES: Cc1csc([C@@]2(CN)[C@@H]3CN(c4cnc5c(-c6ccn7nccc7c6Cl)n[nH]c5n4)C[C@@H]32)n1 [Example 458]
- IC50 [1]: < 500 nM
- IC50 [2]: < 1000 nM

SMILES: NC[C@]1(c2ccccc2F)[C@@H]2CCN(c3cnc4c(-c5ccc6c(c5)C(=O)NCC6)n[nH]c4n3)C[C@@H]21 [Example 251, 7-(6-((1S,6R,7R)-7-(aminomethyl)-7-(2-fluorophenyl)-3-azabicyclo[4.1.0]heptan-3-yl)-1H-pyrazolo[3,4-b]pyrazin-3-yl)-3,4-dihydroisoquinolin-1(2H)-one]
- IC50 [1]: < 500 nM
- IC50 ([2]; Homo sapiens, KYSE-520, 2 h): < 1000 nM

SMILES: COCCn1cc2c(Cl)c(-c3n[nH]c4nc(N5CC[C@@H]6[C@H](C5)[C@@]6(CN)c5ccccc5F)cnc34)ccc2n1 [Example 393, ((1S,6R,7R)-3-(3-(4-chloro-2-(2-methoxyethyl)-2H-indazol-5-yl)-1H-pyrazolo[3,4-b]pyrazin-6-yl)-7-(2-fluorophenyl)-3-azabicyclo[4.1.0]heptan-7-yl)methanamine]
- IC50 [1]: < 500 nM
- IC50 ([2]; Homo sapiens, KYSE-520, 2 h): < 1000 nM

SMILES: NC[C@]1(c2ccccc2F)[C@@H]2CCN(c3cnc4nc(Sc5ccnc(N)c5Cl)ccc4n3)C[C@@H]21 [Example 395, 4-((2-((1S,6R,7R)-7-(aminomethyl)-7-(2-fluorophenyl)-3-azabicyclo[4.1.0]heptan-3-yl)pyrido[2,3-b]pyrazin-6-yl)thio)-3-chloropyridin-2-amine]
- IC50 [1]: < 500 nM
- IC50 ([2]; Homo sapiens, KYSE-520, 2 h): < 1000 nM

SMILES: NC[C@]1(c2ccccc2F)[C@@H]2CCN(c3cnc4c(-c5ccc6cccnc6c5)n[nH]c4n3)C[C@@H]21 [Example 252, ((1S,6R,7R)-7-(2-fluorophenyl)-3-(3-(quinolin-7-yl)-1H-pyrazolo[3,4-b]pyrazin-6-yl)-3-azabicyclo[4.1.0]heptan-7-yl)methanamine]
- IC50 [1]: < 500 nM
- IC50 ([2]; Homo sapiens, KYSE-520, 2 h): < 1000 nM

SMILES: Cn1cnc2c(Cl)c(-c3n[nH]c4nc(N5CC[C@@H]6[C@H](C5)[C@@]6(CN)c5ccccc5F)cnc34)ccc21 [Example 329, ((1S,6R,7R)-3-(3-(4-chloro-1-methyl-1H-benzo[d]imidazol-5-yl)-1H-pyrazolo[3,4-b]pyrazin-6-yl)-7-(2-fluorophenyl)-3-azabicyclo[4.1.0]heptan-7-yl)methanamine]
- IC50 [1]: < 500 nM
- IC50 ([2]; Homo sapiens, KYSE-520, 2 h): < 1000 nM

SMILES: Cn1cc2c(Cl)c(-c3n[nH]c4nc(N5C[C@@H]6[C@H](C5)[C@@]6(CN)c5nc(C(F)(F)F)cs5)cnc34)ccc2n1 [Example 488, ((1R,5S,6r)-3-(3-(4-chloro-2-methyl-2H-indazol-5-yl)-1H-pyrazolo[3,4-b]pyrazin-6-yl)-6-(4-(trifluoromethyl)thiazol-2-yl)-3-azabicyclo[3.1.0]hexan-6-yl)methanamine]
- IC50 [1]: < 500 nM
- IC50 ([2]; Homo sapiens, KYSE-520, 2 h): < 1000 nM
